Results as given in ChEMBL document CHEMBL2417475, “Synthesis and SAR studies of marine natural products ma'edamines A, B and their analogues” (Bioorg Med Chem Lett, 2013).

Key:
Format in all cases: functional, cell-based
SK-BR-3 = experiment: Antiproliferative activity against human estrogen receptor and progesterone receptor deficient SKBR3 cells expressing HER2 after 72 hrs by MTT assay; conditions: SK-BR-3, 72 h
CAMA-1 = experiment: Antiproliferative activity against human progesterone receptor and HER2 deficient CAMA1 cells expressing estrogen receptor after 72 hrs by MTT assay; conditions: CAMA-1, 72 h
T47D = experiment: Antiproliferative activity against human HER2 deficient T47D cells expressing estrogen receptor and progesterone receptor after 72 hrs by MTT assay

SMILES	IC50 (SK-BR-3)	IC50 (CAMA-1)	IC50 (T47D)
CN(C)CCCOc1ccc(-c2c[nH]c(=O)c(Cc3c[nH]c4ccccc34)n2)cc1	> 20 µM	> 20 µM	–
O=c1[nH]cc(-c2ccccc2)nc1Cc1ccccc1	> 10 µM	> 10 µM	> 10 µM
CCN(CC)CCCOc1c(Br)cc(-c2c[nH]c(=O)c(Cc3ccc(OC)c(Br)c3)n2)cc1Br	6 µM	5.23 µM	> 10 µM
CNCCCOc1c(Br)cc(-c2c[nH]c(=O)c(Cc3ccc(OC)c(Br)c3)n2)cc1Br [Ma'edamine B]	4 µM	5.77 µM	6 µM
CNCCCOc1ccc(-c2c[nH]c(=O)c(Cc3c[nH]c4ccccc34)n2)cc1	> 20 µM	> 20 µM	–
CS(=O)(=O)CCNCc1ccc(-c2ccc3ncnc(Nc4ccc(OCc5cccc(F)c5)c(Cl)c4)c3c2)o1 [LAPATINIB]	5.05 µM	> 10 µM	> 10 µM
CNCCCOc1c(Br)cc(-c2c[nH]c(=O)c(Cc3ccccc3)n2)cc1Br	> 10 µM	> 10 µM	> 10 µM
CC(C)c1nc(-c2cc(Br)c(OCCCN(C)C)c(Br)c2)c[nH]c1=O	> 10 µM	> 10 µM	> 10 µM
COc1ccc(Cc2nc(-c3ccc(OCCCN(C)C)cc3)c[nH]c2=O)cc1	> 10 µM	> 10 µM	> 10 µM
COc1ccc(Cc2nc(-c3ccc(OCCCCN(C)C)cc3)c[nH]c2=O)cc1	> 10 µM	> 10 µM	> 10 µM
CNCCCOc1c(Br)cc(-c2c[nH]c(=O)c(Cc3c[nH]c4ccccc34)n2)cc1Br	4.33 µM	5.77 µM	4 µM
COc1ccc(Cc2nc(-c3cc(Cl)c(OCCCN(C)C)c(Cl)c3)c[nH]c2=O)cc1Cl	> 10 µM	> 10 µM	> 10 µM
CN(C)CCCOc1c(Br)cc(-c2c[nH]c(=O)c(Cc3ccccc3)n2)cc1Br	5.5 µM	7.1 µM	6.33 µM
CNCCOc1c(Br)cc(-c2c[nH]c(=O)c(Cc3ccc(OC)c(Br)c3)n2)cc1Br	8.1 µM	> 10 µM	6.18 µM
CN(C)CCCOc1c(Br)cc(-c2c[nH]c(=O)c(Cc3ccc(O)c(Br)c3)n2)cc1Br	5.67 µM	6.67 µM	4.77 µM
COc1ccc(Cc2nc(-c3cc(Br)c(OCCCCN(C)C)c(Br)c3)c[nH]c2=O)cc1Br	> 10 µM	> 10 µM	> 10 µM
COc1ccc(Cc2nc(-c3cc(Br)c(OCCN(C)C)c(Br)c3)c[nH]c2=O)cc1Br	5.73 µM	> 10 µM	5.67 µM
COc1ccc(Cc2nc(-c3ccc(OCCCN4CCOCC4)cc3)c[nH]c2=O)cc1	> 10 µM	> 10 µM	> 10 µM
COc1ccc(Cc2nc(-c3cc(Br)c(OCCCN(C)C)c(Br)c3)c[nH]c2=O)cc1Br [Ma'edamine A]	> 10 µM	> 10 µM	> 10 µM
COc1ccc(Cc2nc(-c3cc(Br)c(OCCCN4CCOCC4)c(Br)c3)c[nH]c2=O)cc1Br	> 10 µM	> 10 µM	> 10 µM
COc1ccc(Cc2nc(-c3cc(Br)c(OCCCCN4CCOCC4)c(Br)c3)c[nH]c2=O)cc1Br	> 10 µM	> 10 µM	> 10 µM
COc1ccc(Cc2nc(-c3cc(Br)c(O)c(Br)c3)cnc2Cl)cc1Br	> 10 µM	> 10 µM	> 10 µM
CN(C)CCCOc1c(Br)cc(-c2c[nH]c(=O)c(Cc3c[nH]c4ccccc34)n2)cc1Br	7 µM	> 10 µM	6.33 µM
